Experimental data reported in the NIST ThermoML archive (doi:10.1007/s10765-005-5566-6).
Numbers after ± are expanded uncertainties.

Assay: xn = mol fraction of the nth substance listed
Conditions: Gas, Hot wire method

C [methane] + O=C=O
thermal conductivity (375 K, 919 kPa, x1 = 0.2493): 0.02872 ± 0.00051 W/m/K | thermal conductivity (375 K, 919 kPa, x1 = 0.4994): 0.03475 ± 0.00061 W/m/K | thermal conductivity (375 K, 930 kPa, x1 = 0.7496): 0.04098 ± 0.00071 W/m/K | thermal conductivity (375 K, 1460 kPa, x1 = 0.2493): 0.02883 ± 0.00051 W/m/K | thermal conductivity (375 K, 1528 kPa, x1 = 0.7496): 0.04104 ± 0.00071 W/m/K | thermal conductivity (375 K, 1578 kPa, x1 = 0.4994): 0.0348 ± 0.00061 W/m/K | thermal conductivity (375 K, 1986 kPa, x1 = 0.2493): 0.02895 ± 0.00052 W/m/K | thermal conductivity (375 K, 2135 kPa, x1 = 0.7496): 0.04117 ± 0.00071 W/m/K | thermal conductivity (375 K, 2220 kPa, x1 = 0.4994): 0.03492 ± 0.00061 W/m/K | thermal conductivity (375 K, 2510 kPa, x1 = 0.2493): 0.02913 ± 0.00052 W/m/K | thermal conductivity (375 K, 2740 kPa, x1 = 0.7496): 0.04129 ± 0.00072 W/m/K | thermal conductivity (375 K, 2840 kPa, x1 = 0.4994): 0.0352 ± 0.00062 W/m/K | thermal conductivity (375 K, 3015 kPa, x1 = 0.2493): 0.02945 ± 0.00053 W/m/K | thermal conductivity (375 K, 3310 kPa, x1 = 0.7496): 0.04145 ± 0.00072 W/m/K | thermal conductivity (375 K, 3480 kPa, x1 = 0.4994): 0.03545 ± 0.00062 W/m/K | thermal conductivity (375 K, 3510 kPa, x1 = 0.2493): 0.0297 ± 0.00053 W/m/K | thermal conductivity (375 K, 3915 kPa, x1 = 0.7496): 0.04181 ± 0.00073 W/m/K | thermal conductivity (375 K, 4005 kPa, x1 = 0.2493): 0.02993 ± 0.00054 W/m/K | thermal conductivity (375 K, 4100 kPa, x1 = 0.4994): 0.03561 ± 0.00063 W/m/K | thermal conductivity (375 K, 4490 kPa, x1 = 0.7496): 0.04204 ± 0.00073 W/m/K | thermal conductivity (375 K, 4500 kPa, x1 = 0.2493): 0.0302 ± 0.00054 W/m/K | thermal conductivity (375 K, 4715 kPa, x1 = 0.4994): 0.03598 ± 0.00063 W/m/K | thermal conductivity (375 K, 4975 kPa, x1 = 0.2493): 0.03051 ± 0.00055 W/m/K | thermal conductivity (375 K, 5440 kPa, x1 = 0.2493): 0.03075 ± 0.00055 W/m/K | thermal conductivity (375 K, 5855 kPa, x1 = 0.4994): 0.03682 ± 0.00065 W/m/K | thermal conductivity (375 K, 6910 kPa, x1 = 0.7496): 0.04355 ± 0.00076 W/m/K | thermal conductivity (375 K, 6930 kPa, x1 = 0.4994): 0.03739 ± 0.00066 W/m/K | thermal conductivity (375 K, 8000 kPa, x1 = 0.4994): 0.03823 ± 0.00068 W/m/K | thermal conductivity (375 K, 9330 kPa, x1 = 0.7496): 0.04538 ± 0.0008 W/m/K | thermal conductivity (375 K, 11600 kPa, x1 = 0.7496): 0.04722 ± 0.00083 W/m/K | thermal conductivity (400 K, 983 kPa, x1 = 0.2493): 0.03152 ± 0.00056 W/m/K | thermal conductivity (400 K, 986 kPa, x1 = 0.4994): 0.03807 ± 0.00066 W/m/K | thermal conductivity (400 K, 993 kPa, x1 = 0.7496): 0.04503 ± 0.00077 W/m/K | thermal conductivity (400 K, 1410 kPa, x1 = 0.2493): 0.0316 ± 0.00056 W/m/K | thermal conductivity (400 K, 1690 kPa, x1 = 0.4994): 0.03812 ± 0.00066 W/m/K | thermal conductivity (400 K, 1700 kPa, x1 = 0.7496): 0.04501 ± 0.00077 W/m/K | thermal conductivity (400 K, 1820 kPa, x1 = 0.2493): 0.03172 ± 0.00056 W/m/K | thermal conductivity (400 K, 2230 kPa, x1 = 0.2493): 0.03183 ± 0.00056 W/m/K | thermal conductivity (400 K, 2378 kPa, x1 = 0.4994): 0.03826 ± 0.00067 W/m/K | thermal conductivity (400 K, 2393 kPa, x1 = 0.7496): 0.04519 ± 0.00078 W/m/K | thermal conductivity (400 K, 2635 kPa, x1 = 0.2493): 0.03187 ± 0.00056 W/m/K | thermal conductivity (400 K, 3040 kPa, x1 = 0.2493): 0.03201 ± 0.00057 W/m/K | thermal conductivity (400 K, 3061 kPa, x1 = 0.4994): 0.03844 ± 0.00067 W/m/K | thermal conductivity (400 K, 3115 kPa, x1 = 0.7496): 0.04526 ± 0.00078 W/m/K | thermal conductivity (400 K, 3435 kPa, x1 = 0.2493): 0.03228 ± 0.00057 W/m/K | thermal conductivity (400 K, 3740 kPa, x1 = 0.4994): 0.03866 ± 0.00068 W/m/K | thermal conductivity (400 K, 3770 kPa, x1 = 0.7496): 0.04535 ± 0.00078 W/m/K | thermal conductivity (400 K, 3850 kPa, x1 = 0.2493): 0.03241 ± 0.00057 W/m/K | thermal conductivity (400 K, 4240 kPa, x1 = 0.2493): 0.03258 ± 0.00058 W/m/K | thermal conductivity (400 K, 4390 kPa, x1 = 0.4994): 0.03887 ± 0.00068 W/m/K | thermal conductivity (400 K, 4460 kPa, x1 = 0.7496): 0.04578 ± 0.00079 W/m/K | thermal conductivity (400 K, 4615 kPa, x1 = 0.2493): 0.03271 ± 0.00058 W/m/K | thermal conductivity (400 K, 5060 kPa, x1 = 0.4994): 0.03918 ± 0.00069 W/m/K | thermal conductivity (400 K, 5140 kPa, x1 = 0.7496): 0.04598 ± 0.0008 W/m/K | thermal conductivity (400 K, 5667 kPa, x1 = 0.4994): 0.03961 ± 0.00069 W/m/K | thermal conductivity (400 K, 6180 kPa, x1 = 0.4994): 0.0398 ± 0.0007 W/m/K | thermal conductivity (400 K, 6670 kPa, x1 = 0.7496): 0.04688 ± 0.00082 W/m/K | thermal conductivity (400 K, 6710 kPa, x1 = 0.4994): 0.04014 ± 0.00071 W/m/K | thermal conductivity (400 K, 8110 kPa, x1 = 0.7496): 0.04756 ± 0.00083 W/m/K | thermal conductivity (400 K, 9545 kPa, x1 = 0.7496): 0.04861 ± 0.00085 W/m/K | thermal conductivity (425 K, 1048 kPa, x1 = 0.2493): 0.03418 ± 0.0006 W/m/K | thermal conductivity (425 K, 1050 kPa, x1 = 0.4994): 0.04164 ± 0.00072 W/m/K | thermal conductivity (425 K, 1050 kPa, x1 = 0.7496): 0.04889 ± 0.00083 W/m/K | thermal conductivity (425 K, 1530 kPa, x1 = 0.2493): 0.03411 ± 0.0006 W/m/K | thermal conductivity (425 K, 1799 kPa, x1 = 0.4994): 0.04146 ± 0.00072 W/m/K | thermal conductivity (425 K, 1810 kPa, x1 = 0.7496): 0.04908 ± 0.00084 W/m/K | thermal conductivity (425 K, 1938 kPa, x1 = 0.2493): 0.03436 ± 0.0006 W/m/K | thermal conductivity (425 K, 2390 kPa, x1 = 0.2493): 0.03434 ± 0.0006 W/m/K | thermal conductivity (425 K, 2554 kPa, x1 = 0.4994): 0.04156 ± 0.00072 W/m/K | thermal conductivity (425 K, 2558 kPa, x1 = 0.7496): 0.04898 ± 0.00084 W/m/K | thermal conductivity (425 K, 2810 kPa, x1 = 0.2493): 0.03448 ± 0.00061 W/m/K | thermal conductivity (425 K, 3260 kPa, x1 = 0.2493): 0.03452 ± 0.00061 W/m/K | thermal conductivity (425 K, 3260 kPa, x1 = 0.4994): 0.04176 ± 0.00072 W/m/K | thermal conductivity (425 K, 3300 kPa, x1 = 0.7496): 0.04919 ± 0.00084 W/m/K | thermal conductivity (425 K, 3690 kPa, x1 = 0.2493): 0.03472 ± 0.00061 W/m/K | thermal conductivity (425 K, 4000 kPa, x1 = 0.4994): 0.04192 ± 0.00073 W/m/K | thermal conductivity (425 K, 4050 kPa, x1 = 0.7496): 0.04919 ± 0.00085 W/m/K | thermal conductivity (425 K, 4120 kPa, x1 = 0.2493): 0.0349 ± 0.00062 W/m/K | thermal conductivity (425 K, 4540 kPa, x1 = 0.2493): 0.03506 ± 0.00062 W/m/K | thermal conductivity (425 K, 4730 kPa, x1 = 0.4994): 0.04207 ± 0.00073 W/m/K | thermal conductivity (425 K, 4800 kPa, x1 = 0.7496): 0.0498 ± 0.00086 W/m/K | thermal conductivity (425 K, 4960 kPa, x1 = 0.2493): 0.0353 ± 0.00062 W/m/K | thermal conductivity (425 K, 5460 kPa, x1 = 0.4994): 0.04245 ± 0.00074 W/m/K | thermal conductivity (425 K, 5520 kPa, x1 = 0.7496): 0.05001 ± 0.00086 W/m/K | thermal conductivity (425 K, 6410 kPa, x1 = 0.4994): 0.04284 ± 0.00075 W/m/K | thermal conductivity (425 K, 7380 kPa, x1 = 0.4994): 0.04335 ± 0.00076 W/m/K | thermal conductivity (425 K, 7670 kPa, x1 = 0.7496): 0.05089 ± 0.00088 W/m/K | thermal conductivity (425 K, 8310 kPa, x1 = 0.4994): 0.04385 ± 0.00077 W/m/K | thermal conductivity (425 K, 9820 kPa, x1 = 0.7496): 0.05188 ± 0.00091 W/m/K | thermal conductivity (425 K, 11970 kPa, x1 = 0.7496): 0.05348 ± 0.00094 W/m/K
